From PMC9021288 (Nature Communications, 2022)
Several values for one entry are separate records, joined by “and”; a condition that tells them apart may be missing. Equal values may be shown once. Entries after “also recorded” stand apart in the source; their conditions may differ. Read-outs that look alike come from different tables or passages of the source.

What was measured:
rat primary hepatocytes [1] = assay: Hepatocyte stability, rat; assay type: in vitro ADME
[2] = Plasma protein binding, mouse
Caco-2 = Caco-2 permeability assay; settings: pH 7.4/7.4
[3] = Blood to plasma ratio, mouse
[4] = Human PK prediction (allometry, in vitro clearance, GastroPlus)
Description: (§1) A blood sample from the saphenous vein was collected into heparinized capillary tubes at multiple intervals between 0.25 and 24 h after dosing. Subsequently, samples were spun down at 1640 g for 5-10 min at 4 °C within 30 min after collection and plasma was collected. […] Urine was collected following an intravenous dose in both rat and dog, allowing renal clearance to be estimated. Human renal clearance was estimated from dog renal clearance as previously described[40] and other human PK parameters were predicted using allometric scaling and/or in vitro clearance data. PK parameters were calculated by naïve pooled approach using WinNonLin software (Phoenix, version 6.3).

[5] = test system: human primary hepatocytes; assay: Metabolite identification in human hepatocyte relay assay
Source text: Briefly, cryopreserved human primary hepatocytes were thawed and cultured as described above.

rat primary hepatocytes [6] = assay: Primary hepatocyte viability (CellTiter-Blue), rat; assay type: cell-based; settings: for %Viability: Rat primary hepatocytes
Description: Safety studies were performed by commercial services using their standard protocols. […] Genotoxicity was investigated using the Ames test (Bacterial Reverse Mutation Assay) (Covance Laboratories Ltd, North Yorkshire, England). In vitro mammalian cell micronucleus screening assay was studied in human peripheral blood lymphocytes (BioReliance Corporation, Rockville, USA). Cardiotoxicity was determined against the hERG channel in an automated patch clamp assay using the Qpatch or against the hNaV 1.5, hKV 1.5 and hCaV 1.2 using a manual patch-clamp technique (Metrion Biosciences, Cambridge, UK). Cytotoxicity in human and rat primary hepatocytes was assessed using the CellTiter-Blue assay performed by commercial services (KaLy-Cell). The viability of HepG2 cells was monitored through the addition of 1 mM resazurin. Following 6 h incubation, the relative amount of reduced resazurin was detected in a fluorimeter and compared to the assay controls (vehicle: 0.1% DMSO and positive control: 10 µM puromycin).

[7] = Blood to plasma ratio, human
[8] = test system: P. falciparum NF54 rings and schizonts; assay: Stage-specific activity on synchronized ring and schizont cultures; assay type: cell-based, Plasmodium falciparum
Description: Asynchronous NF54 parasites were cultured in a semi-automated shaker system[63] and synchronized once with 5% D-sorbitol. […] This yielded a parasite culture with ≥ 90% rings. To assess the schizont-stage activity of MMV693186, the initial synchronized culture was treated again with sorbitol 7 h later. Subsequently, parasites were cultured for another 17 h to yield a parasite culture of ≥ 90% early schizont stages. The ring and schizont synchronized cultures were diluted to 0.5% and then incubated with either 50 nM DHA or 50 nM MM693183 for 24 h in duplicate. Subsequently, the drug was washed out and parasites were cultured for another 24 h. Parasitemia was determined using Giemsa-stained thin smears at 0 h, 24 h, and 48 h after drug exposure.

[9] = Solubility in PBS, FaSSIF, FeSSIF; assay type: physicochemical
dog primary hepatocytes = assay: Hepatocyte stability, dog; assay type: in vitro ADME
[10] = UV scan for phototoxicity; assay type: physicochemical
[11] = test system: P. falciparum field isolates from Uganda; assay: Ex vivo growth inhibition assay, Uganda field isolates; assay type: cell-based, Plasmodium falciparum; settings: N = 230 isolates
Description: An ex vivo growth inhibition assay was performed on fresh clinical P. falciparum isolates in Uganda. […] Parasite density was quantified by fluorescence after incubation with SYBR Green lysis buffer measured on a BMG Fluostar Optima plate reader, as previously described.

Renal excretion in rats = assay type: in vivo, rat
Description: as §1

With `C[C@@H](CNC(=O)[C@H](O)C(C)(C)CO)NC(=O)c1cc(F)c(F)cc1F` [MMV693183] the “Compound Remaining (% of 0 min)” value (rat primary hepatocytes [1]; 0 min) was 100%, the “Compound Remaining (% of 0 min)” value (rat primary hepatocytes [1]; 5 min) was 96.2% and the “Compound Remaining (% of 0 min)” value (rat primary hepatocytes [1]; 10 min) was 97.1%. The “Compound Remaining (% of 0 min)” value (rat primary hepatocytes [1]; 20 min) was 97.8%, the “Compound Remaining (% of 0 min)” value (rat primary hepatocytes [1]; 40 min) was 92.7% and the “Compound Remaining (% of 0 min)” value (rat primary hepatocytes [1]; 60 min) was 89.2%. The plasma protein binding [2] was 33%, the “Average Papp A to B” value (Caco-2) was 2.9e-06 s⁻¹ and the “Average Papp B to A” value (Caco-2) was 1.35e-05 s⁻¹. For the same compound, the Efflux ratio (Caco-2) was 4.7, the “B:P” value [3] was 0.98 and the “biopharmaceutical classification system class” value [4] was “class I”. The “estimated human total clearance” value ([4]; allometry with MLP correction) was 1.8 mL/min/kg, the “CL, total” value ([4]; human predicted) was 1.11 mL/min/kg and the V1 ([4]; human predicted) was 0.843 L/kg. For the same compound, the V2 ([4]; human predicted) was 1.97 L/kg, the Vss ([4]; human predicted) was 2.81 L/kg and the half-life ([4]; human predicted) was 32.4 h. The “CL, renal” value ([4]; human predicted from dog renal clearance) was 0.60 mL/min/kg, the “CL, hepatic” value ([4]; human predicted from in vitro hepatocyte clearance) was 0.51 mL/min/kg and the allometric clearance exponent ([4]; simple allometry) was 0.967. For the same compound, the “In vitro (MS response)” value [5] was 85%, the “%Viability” value (rat primary hepatocytes [6]; Batch R14I19, 0.1 µM) was 103% and the “%Viability” value (rat primary hepatocytes [6]; Batch R14I19, 0.5 µM) was 105%. For the same compound, the “%Viability” value (rat primary hepatocytes [6]; Batch R14I19, 1 µM) was 101%, the “%Viability” value (rat primary hepatocytes [6]; Batch R14I19, 5 µM) was 101% and the “%Viability” value (rat primary hepatocytes [6]; Batch R14I19, 10 µM) was 101%. The “%Viability” value (rat primary hepatocytes [6]; Batch R17G25, 0.1 µM) was 111%, the “%Viability” value (rat primary hepatocytes [6]; Batch R17G25, 0.5 µM) was 109% and the “%Viability” value (rat primary hepatocytes [6]; Batch R17G25, 1 µM) was 111%. The “%Viability” value (rat primary hepatocytes [6]; Batch R17G25, 5 µM) was 106%, the “%Viability” value (rat primary hepatocytes [6]; Batch R17G25, 10 µM) was 106% and the IC50 (rat primary hepatocytes [6]; primary rat hepatocytes) was greater than 10000 nM. The “B:P” value [7] was 0.97, the “activity against asexual stages” value ([8]; 50 nM, 24 h) was “active against both early and late asexual blood stages” and the “Parasitemia, rings culture” value ([8]; Time (h) 0) was 0.4. For the same compound, the “Parasitemia, rings culture” value ([8]; Time (h) 24) was 0, the “Parasitemia, schizonts culture” value ([8]; Time (h) 0) was 0.2 and the “Parasitemia, schizonts culture” value ([8]; Time (h) 24) was 0. It also gave a solubility ([9]; FaSSIF) of 25.5 µM, a solubility ([9]; FeSSIF) of 25.0 µM and a solubility ([9]; PBS) of 7100 µg/mL. The solubility ([9]; fasted-state simulated intestinal fluid) was 9200 µg/mL, the solubility ([9]; fed-state simulated intestinal fluid) was 9100 µg/mL and the “Compound Remaining (% of 0 min)” value (dog primary hepatocytes; 0 min) was 100%. The “Compound Remaining (% of 0 min)” value (dog primary hepatocytes; 5 min) was 92.3%, the “Compound Remaining (% of 0 min)” value (dog primary hepatocytes; 10 min) was 91.7% and the “Compound Remaining (% of 0 min)” value (dog primary hepatocytes; 20 min) was 92.7%. For the same compound, the “Compound Remaining (% of 0 min)” value (dog primary hepatocytes; 40 min) was 85.2%, the “Compound Remaining (% of 0 min)” value (dog primary hepatocytes; 60 min) was 83.9% and the UV absorbance [10] was “No absorbance >290 nm; also recorded: no detectable absorption above 290 nm”. For the same compound, the IC50 ([11]; read-out: IC50 maximum) was 11 nM, the IC50 ([11]; read-out: IC50 minimum) was 0.3 nM and the Urine fraction (Renal excretion in rats; Mean) was 0.36. For the same compound, the “Observed renal plasma clearance” value (Renal excretion in rats; Rat) was 7.7 mL/min/kg, the “Concentration corrected for dilution” value (Renal excretion in rats; rat urine after IV dosing, 400x diluted samples, individual rats R4, R5, R6) was 27920.0 ng/mL and 106400.0 ng/mL and 15600.0 ng/mL and the “drug eliminated in urine” value (Renal excretion in rats; rats, i.v. 3 mg/kg) was 36-40%.
